For series [1], the system named is APRE19 cells. The settings on record: cited from earlier work.
For series [2], the system named is APRE19 cells. In words: Protection of retinal pigmented epithelial cells from oxidative-stress-induced apoptosis (TNFα and H2O2), nuclei stained with Hoechst reagent. It is filed as cell-based. The settings on record: stressed APRE19 cells, TNFα and H2O2, sixteen hours. The procedure: Neurotrophic Protection of Retinal Pigmented Epithelial Cells from Degeneration Due to Oxidative Stress
The purpose of this study was to investigate the pharmacological concept of neurotrophic prevention of oxidative-stress-induced degeneration of retinal pigmented epithelial (RPE) cells. The aim of this study was to validate specific compounds as therapy for retinitis pigmentosa.
APRE19 cells were cultured in complete media, followed by eight hours of serum starvation. Then apoptosis was induced by exposure to oxidative stress (TNFα and H2O2), in the presence or absence of test compounds or controls for sixteen hours. Apoptosis was quantified as the percentage of dead cells over total live+dead cells by counting nuclei stained with Hoechst reagent.
Test agents included nerve growth factor (an agonist of TrkA and p75 receptors), Neurotrophin-3 (an agonist of TrkC and p75 receptors), and compounds D3, 3Ak, 3Ae and 3Aa.

Series [3] relates to mouse model of retinal degeneration. Put plainly: Mouse model of retinal degeneration: ERG (scotopic and photopic) and number of Outer Nuclear Layer rows. Format: in vivo. The following applies: drug treated versus control treated animals. The procedure: Additional experiments in a mouse model of retinal degeneration were conducted.

For “NGF: nerve growth factor (an agonist of TrkA and p75 receptors)”, the “protection of stressed APRE19 cells by neurotrophins (published)” value in the series on APRE19 cells [1] is recorded as “Protection of stressed APRE19 cells”.

Turning to `NCCCC[C@@H]1NC(=O)[C@H](CCC(=O)O)NC(=O)c2cc([N+](=O)[O-])ccc2OCCC(C(=O)NCC(=O)O)NC1=O` (stereo partly shown) [Compound D3], the “protection of apoptosis (in words)” value in the series with APRE19 cells [2] was “quantitative and significant protection of apoptosis, in a dose dependent manner”.

As for `N=C(N)NCCC[C@@H]1NC(=O)c2cc(N)ccc2OCc2ccc(C(N)=O)cc2NC(=O)CNC1=O` [Compound 3Ak], the “protection of apoptosis (in words)” value in the series with APRE19 cells [2] was “quantitative and significant protection of apoptosis, in a dose dependent manner”.

Turning to `CC[C@H](C)[C@@H]1NC(=O)c2cc(N)ccc2OCc2ccc(C(N)=O)cc2NC(=O)[C@H](CCCCN)NC1=O` [Compound 3Aa], in series [3], the “drug effect on ERG (scotopic and photopic) and number of Outer Nuclear Layer rows versus control” value is given as “did not show a drug effect that was statistically significant from control”. Besides, the “protection of apoptosis (in words)” value in the series on APRE19 cells [2] is “protection is not dose dependent and is less than that seen with compounds D3, 3Ak and 3Ae”.

On to `CC[C@H](C)[C@@H]1NC(=O)c2cc(N)ccc2OCc2ccc(C(N)=O)cc2NC(=O)[C@H](CCCNC(=N)N)NC1=O` [Compound 3Ae], for which the “protection of apoptosis (in words)” value with APRE19 cells [2] was “quantitative and significant protection of apoptosis, in a dose dependent manner”.

B1: NT-3: Neurotrophin-3 (an agonist of TrkC and p75 receptors) (protein, UniProt P20783 139-257, looked up)
Neurotrophin-3: YAEHKSHRGEYSVCDSESLWVTDKSSAIDIRGHQVTVLGEIKTGNSPVKQYFYETRCKEARPVKNGCRGIDDKHWNSQCKTSQTYVRALTSENNKLVGWRWIRIDTSCVCALSRKIGRT
On to B1, for which, in the series with APRE19 cells [1], the “protection of stressed APRE19 cells by neurotrophins (published)” value is reported as “Protection of stressed APRE19 cells”.

The record behind these values is patent US8653036B2, “Methods of treating retinitis pigmentosa” (Mimetogen Pharmaceuticals Inc., priority 2009, dated 2014).
